# Results taken from patent US20220340633A1 (Adepthera LLC, priority 2016, published 2022).
# “Also recorded” adds a separate entry of the source.
# How the values were obtained:
# CLR/RAMP2 receptor = biological target: T1, CLR/RAMP2 receptor (Homo sapiens, UniProt O60895+Q16602); experiment: CLR/RAMP2 arrestin receptor activation assay (agonist); format: cell-based
# T1 construct: host or cells: CHO-K1 cells
# Procedure: (§1) Using a receptor activation assay, the dose-dependent stimulatory response of peptide agonists of the present invention on a CLR/RAMP1 receptor, a CLR/RAMP2, or a CLR/RAMP3 receptor complex was determined. A cell line carrying the recombinant CLR/RAMP1, CLR/RAMP2, or a CLR/RAMP3 receptor was employed in the assay. Peptide agonist activities were tested, in duplicate, at 10 different concentrations, starting with 1.0 μM and serially diluted 3-fold, in DMSO. […] The CLR/RAMP1 cAMP, CLR/RAMP2 arrestin assays, and CLR/RAMP3 cAMP (DiscoveRx, Fremont, Calif.) were used.
# [1] = system: primary human lymphatic endothelia cells (HLEC); experiment: HLEC survival in medium with 0.1% FBS, MTS assay; conditions: 30, 100, and 300 nM, 72 hrs
# Procedure: (§2) The cells were cultured for 72 hrs, and cell viability was assayed with the MTS assay (Promega).
# [2] = system: primary human lymphatic endothelia cells (HLEC); experiment: HLEC proliferation in medium with 2% FBS, MTS assay; conditions: 30, 100, and 300 nM, 72 hrs
# Procedure: as §2
# CLR/RAMP3 receptor [3] = biological target: T2, CLR/RAMP3 receptor (Homo sapiens, UniProt O60896+Q16602); experiment: CLR/RAMP3 cAMP receptor activation assay (agonist); format: cell-based; design: host or cells: CHO-K1 cells; conditions: CHO-K1, read-out: CLR/RAMP 3 Max Activity % of positive control
# Procedure: as §1
# CLR/RAMP1 receptor = CLR/RAMP1 receptor (Homo sapiens, UniProt O60894+Q16602); experiment: CLR/RAMP1 cAMP receptor activation assay (agonist); format: cell-based; design: host or cells: 1321N1 cells; conditions: for Emax: 1321-N1, read-out: CLR/RAMP 1 Max Activity % of positive control, 1321N1 cells, % of positive control (β-CGRP)
# Procedure: as §1
# CLR/RAMP3 receptor [4] = biological target: T2, CLR/RAMP3 receptor; conditions: antagonist mode
# Procedure: as §1
# For the analysis of antagonistic activity, the synthetic analogs were pre-incubated with the cells before adding the reference ligand at its EC80.
# T1 sequence (Q16602 23-461): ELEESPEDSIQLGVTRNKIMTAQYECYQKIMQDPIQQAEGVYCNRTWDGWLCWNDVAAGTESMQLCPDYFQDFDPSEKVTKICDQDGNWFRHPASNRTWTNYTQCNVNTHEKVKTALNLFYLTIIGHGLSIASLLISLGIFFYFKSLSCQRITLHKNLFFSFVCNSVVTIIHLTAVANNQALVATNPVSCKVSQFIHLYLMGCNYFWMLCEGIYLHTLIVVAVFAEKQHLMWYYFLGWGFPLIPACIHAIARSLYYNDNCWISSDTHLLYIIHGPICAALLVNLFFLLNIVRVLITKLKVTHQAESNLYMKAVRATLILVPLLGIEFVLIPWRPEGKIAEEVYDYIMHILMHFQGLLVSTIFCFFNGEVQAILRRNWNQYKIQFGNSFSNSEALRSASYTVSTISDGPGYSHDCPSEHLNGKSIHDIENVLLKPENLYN
# T1 sequence (O60895 43-175): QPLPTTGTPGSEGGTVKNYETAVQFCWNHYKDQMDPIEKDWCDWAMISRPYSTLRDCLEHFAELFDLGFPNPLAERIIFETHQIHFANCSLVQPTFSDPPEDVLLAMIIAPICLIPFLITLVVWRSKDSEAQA
# Sequence of CLR/RAMP1 receptor (Q16602 23-461): as the sequence (Q16602 23-461) above
# Sequence of CLR/RAMP1 receptor (O60894 27-148): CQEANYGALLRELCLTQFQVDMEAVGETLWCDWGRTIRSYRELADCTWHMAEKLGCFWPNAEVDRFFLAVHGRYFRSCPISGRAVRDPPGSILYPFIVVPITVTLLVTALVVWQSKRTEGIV
# T2 sequence (Q16602 23-461): as the sequence (Q16602 23-461) above
# T2 sequence (O60896 24-148): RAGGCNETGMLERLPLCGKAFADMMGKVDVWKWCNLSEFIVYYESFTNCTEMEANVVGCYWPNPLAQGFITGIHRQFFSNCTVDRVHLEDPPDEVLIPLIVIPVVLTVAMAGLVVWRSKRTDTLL
SMILES,"Emax (CLR/RAMP2 receptor; CHO-K1, read-out: CLR/RAMP 2 Max Activity % of positive control, CHO-K1 cells, % of positive control (ADM)) [%]",HLEC survival (in words) [1],HLEC proliferation (in words) [2],Emax (CLR/RAMP3 receptor [3]) [%],Emax (CLR/RAMP1 receptor) [%],"EC50 (CLR/RAMP2 receptor; CHO-K1 cells stably expressing CLR/RAMP2, arrestin, positive control ADM, read-out: CLR/RAMP 2 EC50) [nM]","CLR/RAMP 2 Max Activity % of positive control (CLR/RAMP2 receptor; CHO-K1 cells, % of positive control (ADM)) [%]","EC50 (CLR/RAMP1 receptor; 1321N1 cells stably expressing CLR/RAMP1, cAMP, positive control β-CGRP, read-out: CLR/RAMP 1 EC50) [nM]",CLR/RAMP3 Max Activity % of positive control (CLR/RAMP3 receptor [4]) [%]
CCCCCCCCCCCCCCCC(=O)NCCCC[C@H](NC(=O)COCCOCCN)C(=O)NCC(=O)N[C@H]1CSSC[C@@H](C(=O)N[C@H](C(=O)N[C@H](C(=O)N[C@@H](CCC(N)=O)C(=O)N[C@@H](CCCCN)C(=O)N[C@@H](CC(C)C)C(=O)N[C@@H](C)C(=O)N[C@@H](Cc2c[nH]cn2)C(=O)N[C@@H](CCC(N)=O)C(=O)N[C@H](C(=O)N[C@@H](Cc2ccc(O)cc2)C(=O)N[C@@H](CCC(N)=O)C(=O)N[C@@H](Cc2ccccc2)C(=O)N[C@H](C(=O)N[C@@H](CC(=O)O)C(=O)N[C@@H](CCCCN)C(=O)N[C@@H](CC(=O)O)C(=O)N[C@@H](CCCCN)C(=O)N[C@@H](CC(=O)O)C(=O)N[C@@H](CC(N)=O)C(=O)N[C@H](C(=O)N[C@@H](C)C(=O)N2CCC[C@H]2C(=O)N[C@@H](CCCNC(=N)N)C(=O)N[C@@H](CO)C(=O)N[C@@H](CCCCN)C(=O)N[C@H](C(=O)N[C@@H](CO)C(=O)N2CCC[C@H]2C(=O)N[C@@H](CCC(N)=O)C(=O)NCC(=O)N[C@@H](Cc2ccc(O)cc2)C(N)=O)[C@@H](C)CC)C(C)C)[C@@H](C)O)[C@@H](C)CC)C(C)C)[C@@H](C)O)NC(=O)[C@H]([C@@H](C)O)NC(=O)CNC(=O)[C@H](Cc2ccccc2)NC(=O)[C@H](CCCNC(=N)N)NC1=O [SEQ ID NO: 69],147,dose-dependently stimulated; also recorded: significantly promote,dose-dependently stimulated; also recorded: significantly promote,127,70,–,–,–,–
CCCCCCCCCCCCCCCC(=O)NCCCC[C@H](NC(=O)COCCOCCN)C(=O)NCC(=O)N[C@H]1CSSC[C@@H](C(=O)N[C@H](C(=O)N[C@H](C(=O)N[C@@H](CCC(N)=O)C(=O)N[C@@H](CCCCN)C(=O)N[C@@H](CC(C)C)C(=O)N[C@@H](C)C(=O)N[C@@H](Cc2c[nH]cn2)C(=O)N[C@@H](CCC(N)=O)C(=O)N[C@H](C(=O)N[C@@H](Cc2ccc(O)cc2)C(=O)N[C@@H](CCC(N)=O)C(=O)N[C@@H](Cc2ccccc2)C(=O)N[C@H](C(=O)N[C@@H](CC(=O)O)C(=O)N[C@@H](CCCCN)C(=O)N[C@@H](CC(=O)O)C(=O)N[C@@H](CCCCN)C(=O)N[C@@H](CC(=O)O)C(=O)N[C@@H](CC(N)=O)C(=O)N[C@@H](CO)C(=O)N[C@@H](C)C(=O)N2CCC[C@H]2C(=O)N[C@H](C(=O)N[C@@H](CC(=O)O)C(=O)N2CCC[C@H]2C(=O)N[C@@H](CO)C(=O)N[C@@H](CO)C(=O)N2CCC[C@H]2C(=O)N[C@@H](Cc2c[nH]cn2)C(=O)N[C@@H](CO)C(=O)N[C@@H](Cc2ccc(O)cc2)C(N)=O)C(C)C)[C@@H](C)O)[C@@H](C)CC)C(C)C)[C@@H](C)O)NC(=O)[C@H]([C@@H](C)O)NC(=O)CNC(=O)[C@H](Cc2ccccc2)NC(=O)[C@H](CCCNC(=N)N)NC1=O [SEQ ID NO: 28],–,dose-dependently stimulated; also recorded: significantly promote,dose-dependently stimulated; also recorded: significantly promote,117,54,0.5,143,0.3,–
CCCCCCCCCCCCCCCC(=O)N[C@@H](CCCCN)C(=O)N[C@H](C(=O)N[C@@H](CCC(N)=O)C(=O)N[C@@H](CCCCN)C(=O)N[C@@H](CC(C)C)C(=O)N[C@@H](C)C(=O)N[C@@H](Cc1c[nH]cn1)C(=O)N[C@@H](CCC(N)=O)C(=O)N[C@@H](CO)C(=O)N[C@@H](C)C(=O)N1CCC[C@H]1C(=O)N[C@H](C(=O)N[C@@H](CC(=O)O)C(=O)N1CCC[C@H]1C(=O)N[C@@H](CO)C(=O)N[C@@H](CO)C(=O)N1CCC[C@H]1C(=O)N[C@@H](Cc1c[nH]cn1)C(=O)N[C@@H](CO)C(=O)N[C@@H](Cc1ccc(O)cc1)C(N)=O)C(C)C)C(C)C [SEQ ID NO: 124],–,–,–,–,–,–,–,–,102
